Data set [1] can be described thus: Human Phase 0 three-way crossover microdose pharmacokinetic study of 14C-labelled M4N, AMS. Particulars: for F: bioavailability of oral dose compared to IV dose; for Tmax: intravenous dose. Type of data set: in vivo. Here is the method: This study was designed to assess the absorption of M4N when administered to humans as a sub-therapeutic dose either as a single oral dose under fed and fasted conditions or a single intravenous dose (Regimens A-C, respectively, in Table 24). The study was a three-way crossover study design in a target population of healthy male subjects and consisted of three study periods of approximately 35 hours duration, each separated by a minimum period of at least 7 days between dosing. During the course of each study period, pharmacokinetic blood samples were taken at specified time points after dosing and urine was collected over pre-defined time intervals. The subjects were able to leave the clinical unit after the completion of study specific procedures at 24 hours post-dose.
In this study, M4N was administered to humans in a 100 μg quantity. M4N was lightly-labelled with ^14C (3.3 kBq per 100 μg) and administered to healthy volunteers. Each oral administration of M4N consisted of 0.1 mg of ^14C labeled M4N and 376.8 mg of glycerol monooleate in a size 0 gelatin capsule. The single intravenous infusion of M4N consisted of 0.1 mg/mL ^14C labelled M4N, 30% (w/v) HP-β-CD, and 25% (v/v) PEG diluted with water to 1 mL for bolus injection. Following collection of blood and urine from each subject, samples were analyzed for ^14C content using Accelerator Mass Spectrometry (AMS) to determine the maximum concentration of M4N (Cmax) that occurred at time Tmax, the overall area under the curve (AUC) that corresponds to the overall absorption of M4N at the times of testing (AUC0-t) and overall (AUC0-∞), the terminal half-life (T1/2) of each sample and the relative and overall bioavailability (Frel and F), of the oral dose of M4N compared to the IV dose of M4N. The baseline levels of M4N were corrected for any residual M4N remaining in the subjects following the periods between dosing so as not to inflate the levels of M4N for any subsequent dosing.

The nature of data set [2]: Absorption of M4N in beagle dogs upon oral administration of solid formulations in capsules, serum LC/MS/MS. The settings on record: oral single 100 mg/kg. Type of data set: in vivo. Here is the method:
Five groups of dogs (n=2 per group, one male and one female) (age=approximately 6-9 months old) were exposed to a single 100 mg/kg dose of M4N in excipient to determine the optimal oral solid excipient. The composition of M4N in excipient was encapsulated in size 12 hard gelatin capsules prior to oral administration. The animals were fasted overnight prior to dosing. The excipients/formulations tested are set forth in Table 19 and were: (a) no excipient, where M4N was encapsulated; (b) HP-β-CD; (c) TPGS; (d) soybean oil+beeswax; and (e) olive oil+beeswax. Blood was collected from each animal via the jugular vein at the following time points: predose, 0.5 hr, 1 hr, 1.5 hr, 2 hr, 4 hr, 6 hr and 8 hr post dosing. Concentrations of M4N in serum were determined by Liquid Chromatography combined with tandem Mass Spectroscopy (LC/MS/MS).

Setting [3] is: human, 100 μg, total 14C plasma.
Where [4] appears, read: human, oral and intravenous 100 μg.

Consider `COc1ccc(C[C@@H](C)[C@@H](C)Cc2ccc(OC)c(OC)c2)cc1OC` [Formulation M4N, meso-1,4-bis(3,4-dimethoxyphenyl)-2,3-dimethylbutane], for which the F in data set [1] (Regimen A (oral, fed): 100 μg single oral dose following a high fat breakfast, 14C, baseline corrected, mean ± SD) is 91.2 ± 19.1%; in data set [1] (Regimen B (oral, fasted): 100 μg single oral dose following an overnight fast, 14C, baseline corrected, mean ± SD) it was 122.1 ± 14.5%. For the same compound, the “AUC0-t oral dose in fasted subjects compared with the intravenous dose” value in data set [1] (setting [3]) was “slightly higher”. Also, the “AUC0-t oral dose in fed subjects compared with the intravenous dose” value in data set [1] (setting [3]) is given as “slightly lower”. Also, in data set [1] (human, fed and fasted state), the “apparent absorption following oral administration” value is recorded as “very high”. In addition, the Tmax in data set [1] (human, eight of the ten subjects (first sampling time)) amounted to 4.8 min; in data set [1] (human, two subjects) it was 10.2 min. Moreover, the “AUC0-t in fed subjects compared with fasted subjects” value in data set [1] (human, oral 100 μg) was “generally lower”. Also, the “Tmax, generally” value in data set [1] (human, oral 100 μg, fasted subjects) is 60 min. The adverse events entry in data set [1] (setting [4]) is given as “no serious or severe adverse events”. For the same compound, the tolerability entry in data set [1] (setting [4]) is “well tolerated”. Besides, the “vital signs or ECGs” value in data set [1] (setting [4]) is reported as “No clinically significant changes”. Also, the Frel in data set [1] (relative bioavailability, Regimen A (oral, fed): 100 μg single oral dose following a high fat breakfast, 14C, baseline corrected, mean ± SD) is reported as 75.1 ± 16.2%. The “Absorption, ranking between formulations” value is recorded as “higher than that containing TPGS” in data set [2] (Lyophilized HP-β-CD (81%)+M4N (185 mg/g)), “higher than that containing soybean oil+beeswax” in data set [2] (TPGS (20%)+M4N (133 mg/g)), “highest” in data set [2] (olive oil (95%)+beeswax (5%)+M4N (200 mg/g)) and “higher than M4N without an excipient” in data set [2] (soybean oil (95%)+beeswax (5%)+M4N (200 mg/g)).

Broadly, the Tmax is the time from dosing to the highest level.

(Values after US20090022803A1, “Oral Formulations For Delivery of Catecholic Butanes Including Ndga Compounds” (priority 2005, published 2009).)
